Converted amounts (≈) assume the structure as drawn. Read-outs that look alike come from different tables or passages of the source.
What was measured:
[1] = test system: Staph. aureus (Meth-Res) A-15097; assay: MIC, tube dilution, Staphylococcus aureus A15097 (Meth-Res); format: cell-based; details: Staphylococcus aureus, overnight 37° C.
From the text: (§1) Representative compounds of the present invention were subjected to in vitro antibiotic screening against a variety of microorganisms.

[2] = test system: Ps. aeruginosa A-9843A; assay: MIC, tube dilution, Pseudomonas aeruginosa A9843A; format: cell-based; details: Pseudomonas aeruginosa, A9843A, read-out: Minimum Inhibitory Concentration (M.I.C.), Pseudomonas aeruginosa A9843A; overnight 37° C.
From the text: as §1

[3] = test system: E. coli A-20341-1; assay: MIC, tube dilution, Escherichia coli A20341-1; format: cell-based
From the text: as §1

[4] = test system: Ent. cloacae A-9659; assay: MIC, tube dilution, Enterobacter cloacae A9659; format: cell-based; details: Enterobacter cloacae, A9659, Enterobacter cloacae A9659; overnight 37° C.; read-out: Minimum Inhibitory Concentration (M.I.C.)
From the text: as §1

[5] = test system: Pr. vulgaris A-9716; assay: MIC, tube dilution, Proteus vulgaris / Proteus mirabilis A9716; format: cell-based, Proteus vulgaris (name changed to Proteus mirabilis); details: Proteus vulgaris, overnight 37° C.
From the text: as §1

[6] = test system: Staph. aureus A-9537 and 50% serum; assay: MIC, tube dilution, Staph. aureus A9537 + 50% serum; format: cell-based, Staphylococcus aureus; details: Staphylococcus aureus, overnight 37° C., read-out: Minimum Inhibitory Concentration (M.I.C.)
From the text: as §1

[7] = test system: Pr. morganii A-15153; assay: MIC, tube dilution, Proteus morganii A15153; format: cell-based; details: Morganella morganii, A15153, Proteus morganii A15153; overnight 37° C.; read-out: Minimum Inhibitory Concentration (M.I.C.)
From the text: as §1

[8] = test system: Ps. aeruginosa A-21213; assay: MIC, tube dilution, Pseudomonas aeruginosa A21213; format: cell-based; details: overnight 37° C., read-out: Minimum Inhibitory Concentration (M.I.C.)
From the text: as §1

[9] = test system: K. pneumoniae A-15130; assay: MIC, tube dilution, Klebsiella pneumoniae A15130; format: cell-based; details: Klebsiella pneumoniae, A15130, K. pneumoniae A15130; overnight 37° C.; read-out: Minimum Inhibitory Concentration (M.I.C.)
From the text: as §1

[10] = test system: Str. faecalis A-20688; assay: MIC, tube dilution, Streptococcus faecalis A20688; format: cell-based; details: Enterococcus faecalis, A20688, Str. faecalis A20688; overnight 37° C.; read-out: Minimum Inhibitory Concentration (M.I.C.)
From the text: as §1

[11] = test system: Proteus rettgeri A21203; assay: MIC, tube dilution, Proteus rettgeri A21203; format: cell-based; details: Providencia rettgeri, overnight 37° C., read-out: Minimum Inhibitory Concentration (M.I.C.)
From the text: as §1

[12] = test system: Ser. marcescens A-20019; assay: MIC, tube dilution, Serratia marcescens A20019; format: cell-based; details: Serratia marcescens, A20019, Serratia marcescens A20019; overnight 37° C.; read-out: Minimum Inhibitory Concentration (M.I.C.)
From the text: as §1

[13] = test system: Str. pyogenes A-9604; assay: MIC, tube dilution, Streptococcus pyogenes A9604; format: cell-based; details: Streptococcus pyogenes, A9604, Str. pyogenes A9604; overnight 37° C., Nutrient Broth; read-out: Minimum Inhibitory Concentration (M.I.C.)
From the text: as §1

[14] = test system: Staph. aureus (Pen-Res) A-9606; assay: MIC, tube dilution, Staphylococcus aureus A9606 (Pen-Res); format: cell-based; details: Staphylococcus aureus, overnight 37° C.
From the text: as §1

[15] = test system: Ent. cloacae A-9656; assay: MIC, tube dilution, Enterobacter cloacae A9656; format: cell-based; details: overnight 37° C., read-out: Minimum Inhibitory Concentration (M.I.C.)
From the text: as §1

[16] = test system: Staph. aureus A-9537; assay: MIC, tube dilution, Staphylococcus aureus A9537; format: cell-based; details: Staphylococcus aureus, A9537, Staph. aureus A9537; overnight 37° C., Nutrient Broth; read-out: Minimum Inhibitory Concentration (M.I.C.)
From the text: as §1

[17] = test system: E. coli A-15119; assay: MIC, tube dilution, Escherichia coli A15119; format: cell-based; details: Escherichia coli, A15119, E. coli A15119; overnight 37° C.; read-out: Minimum Inhibitory Concentration (M.I.C.)
From the text: as §1

[18] = test system: Str. pneumoniae A-9585; assay: MIC, tube dilution, Streptococcus pneumoniae A9585; format: cell-based; details: Streptococcus pneumoniae, A9585, Str. pneumoniae A9585; overnight 37° C., Nutrient Broth; read-out: Minimum Inhibitory Concentration (M.I.C.)
From the text: as §1

[19] = test system: Klebsiella species A20468; assay: MIC, tube dilution, Klebsiella species A20468; format: cell-based; details: Klebsiella species (K. pneumoniae) A20468; overnight 37° C.; read-out: Minimum Inhibitory Concentration (M.I.C.)
From the text: as §1

[20] = test system: Pr. mirabilis A-9900; assay: MIC, tube dilution, Proteus mirabilis A9900; format: cell-based; details: Proteus mirabilis, A9900, Proteus mirabilis A9900; overnight 37° C.; read-out: Minimum Inhibitory Concentration (M.I.C.)
From the text: as §1

[21] = read-out: Minimum Inhibitory Concentration (M.I.C.), Staph. aureus A15097 (Meth-Res)
[22] = Escherichia coli, A203411; E. coli A20341-1; overnight 37° C.; read-out: Minimum Inhibitory Concentration (M.I.C.)
[23] = read-out: Minimum Inhibitory Concentration (M.I.C.), Staph. aureus A9606 (Pen-Res)
[24] = Staph. aureus A15097 (Meth-Res), read-out: Minimum Inhibitory Concentration (M.I.C.)
[25] = A9716, Proteus vulgaris / Proteus mirabilis A9716, read-out: Minimum Inhibitory Concentration (M.I.C.)
[26] = A21203, Proteus rettgeri A21203
[27] = Staph. aureus A9606 (Pen-Res), read-out: Minimum Inhibitory Concentration (M.I.C.)
[28] = Enterobacter cloacae, A9656, Enterobacter cloacae A9656

With `O=C([O-])C1=C(Cc2ccco2)S[C@@H]2CC(=O)N12.[Na+]` [Preparation 18, Sodium 2-(2-Furylmethyl)penem-3-carboxylate] the MIC [1, 21] was 16 µg/mL, the MIC [2] was > 125 µg/mL and the MIC [3, 22] was > 125 µg/mL. For the same molecule, the MIC [4] was 16 µg/mL, the MIC ([5]; A9716, read-out: Minimum Inhibitory Concentration (M.I.C.), Proteus vulgaris / Proteus mirabilis A9716) was 2 µg/mL and the MIC [6] was > 63 µg/mL. For the same molecule, the MIC [7] was 8 µg/mL, the MIC ([8]; Pseudomonas aeruginosa A21213) was > 125 µg/mL and the MIC [9] was 32 µg/mL. For the same molecule, the MIC [10] was 63 µg/mL, the MIC ([11]; Proteus rettgeri A21203) was 4 µg/mL and the MIC [12] was 32 µg/mL. For the same molecule, the MIC [13] was 0.25 µg/mL, the MIC [14, 23] was 1 µg/mL and the MIC ([15]; Enterobacter cloacae A9656) was 32 µg/mL. It also gave an MIC [16] of 0.5 µg/mL, an MIC [17] of 2 µg/mL and an MIC [18] of 0.06 µg/mL. The MIC [19] was > 125 µg/mL and the MIC [20] was 2 µg/mL.
For `O=C(O)C1=CSC2CC(=O)N12` (stereo not shown) [Example 19, Penem-3-carboxylic Acid], the MIC [1, 24] was 63 µg/mL (≈ 368 µM), the MIC [2] was 63 µg/mL (≈ 368 µM) and the MIC ([3]; Escherichia coli, A203411, E. coli A20341-1; overnight 37° C.; read-out: Minimum Inhibitory Concentration (M.I.C.)) was 16 µg/mL (≈ 93.5 µM). The MIC [4] was 16 µg/mL (≈ 93.5 µM), the MIC [5, 25] was 16 µg/mL (≈ 93.5 µM) and the MIC [6] was 63 µg/mL. It also gave an MIC [7] of 16 µg/mL (≈ 93.5 µM), an MIC ([8]; Pseudomonas aeruginosa, A21213, Pseudomonas aeruginosa A21213) of 125 µg/mL (≈ 730 µM) and an MIC [9] of 16 µg/mL (≈ 93.5 µM). For the same molecule, the MIC [10] was 125 µg/mL (≈ 730 µM), the MIC [11, 26] was 16 µg/mL (≈ 93.5 µM) and the MIC [12] was 16 µg/mL (≈ 93.5 µM). The MIC [13] was 2 µg/mL (≈ 11.7 µM), the MIC [14, 27] was 8 µg/mL (≈ 46.7 µM) and the MIC [15, 28] was 16 µg/mL (≈ 93.5 µM). It also gave an MIC [16] of 4 µg/mL (≈ 23.4 µM), an MIC [17] of 8 µg/mL (≈ 46.7 µM) and an MIC [18] of 0.5 µg/mL (≈ 2.92 µM). The MIC [19] was > 125 µg/mL and the MIC [20] was 16 µg/mL (≈ 93.5 µM).
For `CON=C(C)CC1=C(C(=O)O)N2C(=O)CC2S1` (stereo not shown) [Example 44, Sodium 2-(Acetonylmethyl oxime)-penem-3-carboxylate], the MIC [1, 21] was > 125 µg/mL, the MIC [2] was 125 µg/mL and the MIC [3, 22] was > 125 µg/mL. For the same molecule, the MIC [4] was > 125 µg/mL, the MIC [5, 25] was 63 µg/mL and the MIC [6] was > 63 µg/mL. For the same molecule, the MIC [7] was 125 µg/mL, the MIC ([8]; Pseudomonas aeruginosa A21213) was 125 µg/mL and the MIC [9] was > 125 µg/mL. For the same molecule, the MIC [10] was 125 µg/mL, the MIC ([11]; Proteus rettgeri A21203) was 125 µg/mL and the MIC [12] was > 125 µg/mL. For the same molecule, the MIC [13] was 16 µg/mL, the MIC [14, 23] was > 125 µg/mL and the MIC ([15]; Enterobacter cloacae A9656) was > 125 µg/mL. It also gave an MIC [16] of 32 µg/mL, an MIC [17] of 63 µg/mL and an MIC [18] of 2 µg/mL. For the same molecule, the MIC [19] was > 125 µg/mL and the MIC [20] was 63 µg/mL.
With `CC(C)(C)CC1=C(C(=O)O)N2C(=O)CC2S1` (stereo not shown) [Preparation 23, 2-(2',2'-Dimethylpropyl)penem-3-carboxylate] the MIC [1, 21] was 125 µg/mL (≈ 518 µM), the MIC [2] was > 125 µg/mL and the MIC [3, 22] was > 125 µg/mL. The MIC [4] was 125 µg/mL (≈ 518 µM), the MIC [5, 25] was 4 µg/mL (≈ 16.6 µM) and the MIC [6] was > 63 µg/mL. The MIC [7] was 63 µg/mL (≈ 261 µM), the MIC ([8]; Pseudomonas aeruginosa A21213) was > 125 µg/mL and the MIC [9] was 125 µg/mL (≈ 518 µM). For the same molecule, the MIC [10] was > 125 µg/mL, the MIC [11, 26] was 32 µg/mL (≈ 133 µM) and the MIC [12] was 125 µg/mL (≈ 518 µM). For the same molecule, the MIC [13] was 0.25 µg/mL (≈ 1.04 µM), the MIC [14, 27] was 32 µg/mL (≈ 133 µM) and the MIC ([15]; Enterobacter cloacae A9656) was > 125 µg/mL. For the same molecule, the MIC [16] was 0.25 µg/mL (≈ 1.04 µM), the MIC [17] was 16 µg/mL (≈ 66.3 µM) and the MIC [18] was 0.25 µg/mL (≈ 1.04 µM). The MIC [19] was > 125 µg/mL and the MIC [20] was 2 µg/mL (≈ 8.29 µM).
With `O=C(O)C1=C(c2cscn2)SC2CC(=O)N12` (stereo not shown) [Preparation 27, 2-(4'-Thiazolyl)penem-3-carboxylic Acid] the MIC [1, 24] was 8 µg/mL (≈ 31.5 µM), the MIC [2] was 125 µg/mL (≈ 492 µM) and the MIC [3, 22] was 125 µg/mL (≈ 492 µM). For the same molecule, the MIC [4] was 125 µg/mL (≈ 492 µM), the MIC [5, 25] was 4 µg/mL (≈ 15.7 µM) and the MIC [6] was > 63 µg/mL. It also gave an MIC [7] of 32 µg/mL (≈ 126 µM), an MIC ([8]; Pseudomonas aeruginosa A21213) of 125 µg/mL (≈ 492 µM) and an MIC [9] of 125 µg/mL (≈ 492 µM). For the same molecule, the MIC [10] was 4 µg/mL (≈ 15.7 µM), the MIC [11, 26] was 16 µg/mL (≈ 62.9 µM) and the MIC [12] was 63 µg/mL (≈ 248 µM). It also gave an MIC [13] of 0.25 µg/mL (≈ 0.983 µM), an MIC [14, 27] of 8 µg/mL (≈ 31.5 µM) and an MIC [15, 28] of 63 µg/mL (≈ 248 µM). The MIC [16] was 0.5 µg/mL (≈ 1.97 µM), the MIC [17] was 8 µg/mL (≈ 31.5 µM) and the MIC [18] was 0.13 µg/mL (≈ 0.511 µM). The MIC [19] was > 125 µg/mL and the MIC [20] was 4 µg/mL (≈ 15.7 µM).

Source: US4272437A, “Antibacterial agents, and 4-thio azetidinone intermediates” (priority 1979, dated 1981)
